# Patent publication US4183939A, “Glaucine analgesic method” (priority 1978, dated 1980)
# Where a name gives a salt, the structure may show the parent alone. Read-outs that look alike come from different tables or passages of the source.
# Key:
# [1] = in vivo; cited from earlier work
# [2] = assay type: in vivo; conditions: intraperitoneal injection 45-60 minutes before testing
# [3] = plasma concentration levels of glaucine in guinea pigs; assay type: in vivo; conditions: for concentration at 0.25 h: 15 minutes after dosing, l-isomer orally 5 mg/kg, read-out: plasma glaucine level after 15 minutes
# Method: Test compounds were administered to guinea pigs, and blood samples were collected at 15 minute intervals and analyzed to determine plasma concentration levels of glaucine.
# Similar results were obtained with d- and l-glaucine phosphate, with l-glaucine phosphate producing from 3 to 6 or more times the levels obtained with the d-isomer throughout a 120 minute period.
# [4] = test system: mice; test: protecting mice against writhing induced by intraperitoneal injection of aqueous 0.1 percent hydrochloric acid; assay type: in vivo; conditions: subcutaneous, 15 minutes before HCl; for ED50: Mus musculus, sc
# Method: l-Glaucine hydrobromide and d-glaucine hydrobromide were evaluated for analgesic activity in protecting mice against characteristic writhing induced by intraperitoneal injection of aqueous 0.1 percent hydrochloric acid, injected 15 minutes after subcutaneous injection of a test compound.
# [5] = test system: mice; test: animal or person; assay type: in vivo; conditions: Mus musculus, sc, 0.5 h; first evaluation; subcutaneous injection 30 minutes before testing; read-out: ED50 (hot plate)
# Method: The test compounds were administered by subcutaneous injection 30 minutes before testing.
# [6] = test system: mice; test: phenyl-p-quinone mouse writhing test (oral analgesic activity); assay type: in vivo; conditions: orally 30 minutes prior to phenyl-p-quinone challenge; for ED50: Mus musculus, po, 0.5 h
# Method: Test compounds were evaluated for oral analgesic activity in the phenyl-p-quinone mouse writhing test of Hendershot & Forsaith, J. Pharmacol. Exptl. Therap. 125(3), 237 (1959). Test compounds were administered orally 30 minutes prior to the phenyl-p-quinone challenge. […]
# [7] = test system: mice; assay type: in vivo; conditions: for stimulation and Straub tail: increasing doses on two consecutive days, d,l-glaucine phosphate highest dose 100 mg/kg; for jumping behavior after naloxone (in words): naloxone 100 mg/kg intraperitoneal
# Method: Physical dependency liability was evaluated in mice by the procedure of Saelens, et al., Aoch. Int. Pharmacodynam, 190:213-218, 1971. In this procedure, mice are administered increasing doses of a test compound at intervals on two consectuive days. The last dosage on the second day is followed by intraperitoneal injection of the morphine antagonist, naloxone, at a dosage of 100 mg/kg, and the mice are observed for characteristic jumping behavior indicative of opiate withdrawals or morphine antaganism.
# [8] = test system: monkeys; test: abuse potential: self-administration in codeine-habituated monkeys; assay type: in vivo; conditions: codeine 100 micrograms/kg per injection; d,l-glaucine phosphate substituted at 50, 100, 200 and 400 micrograms/kg per injection
# Excerpt: The abuse potential of d,l-glaucine phosphate was studied in two monkeys in a procedure similar to that described by Deneau, et al., Psychopharmacologia 16(1):30-48, 1969.
# In this procedure, the test monkeys are restrained and catheter inserted into the external jugular vein for injection of test substances in response to pressing a bar lever by the monkey. The test monkeys are first habituated to self-administer codeine at a rate of 100 micrograms/kilograms per injection. The self-administration rate of the two monkeys so trained and habituated was about 100 to 150 lever pushes per two hour session at the 100 microgram codeine level. […]
# [9] = acute lethality (LD50) in mice; assay type: in vivo; conditions: mouse, in vivo, mortality within 72 hours
# Method: (§1) In other operations, various dosages of d,l-glaucine phosphate were administered to groups of mice by the oral route or by intraperitoneal injection, and the dosage which is lethal to 50 percent of the mice (LD50) was calculated from the mortality observations within 72 hours after administration.
# [10] = in vivo; cited from earlier work; remark: listed apart in the source
# [11] = in vivo; cited from earlier work; remark: listed apart in the source
# [12] = test system: mice; conditions: cited from earlier work
# [13] = test system: mice; test: acute lethality (LD50) in mice; assay type: in vivo; conditions: mortality within 72 hours
# Method: as §1
# [14] = naloxone 100 mg/kg intraperitoneal after last dose on second day
structure (smiles),measurement,setting,value
COc1cc2c(cc1OC)-c1c(OC)c(OC)cc3c1[C@H](C2)N(C)CC3 [d-glaucine hydrobromide],antitussive activity,[1],antitussive activity
same,analgesic activity (tail pinch),[2],No analgesic activity was observed
same,"plasma level after initial peak, throughout the 90 minute period","[3]; after initial peak at 15 minutes, to 90 minutes",20-40 nanograms/ml
same,concentration at 0.25 h,"[3]; guinea pig, plasma, po",~50 ng/mL
same,Tmax,"[3]; guinea pig, plasma, read-out: time of initial peak plasma level (converted)",15 min
same,ED50,[4],12.9 mg/kg
same,95 percent confidence limits of ED50 (HCl writhing),[4],5.24 to 31.8 mg/kg
same,ED50,[5],23.8 mg/kg
same,ED50,[6],34 mg/kg
"COc1cc2c(cc1OC)-c1c(OC)c(OC)cc3c1C(C2)N(C)CC3 (racemic) [d,l-glaucine phosphate]",stimulation and Straub tail,[7],no Straub tail at the highest dose
same,jumping behavior after naloxone (in words),"[7]; listed as d,l-Glaucine phosphate 1:11/2 salt",no jumping behavior in any of the eight mice tested
same,self-administration response rate,[8],10-20 responses/two hour session
same,LD50 at 72 h,"[9]; ip, intraperitoneal, read-out: LD50, intraperitoneal",178 mg/kg
same,LD50 at 72 h,"[9]; po, read-out: LD50, oral",≥ 681 mg/kg
same,ED50,[6],23 mg/kg
COc1cc2c(cc1OC)-c1c(OC)c(OC)cc3c1[C@@H](C2)N(C)CC3 [l-glaucine hydrobromide],analgesic activity (tail pinch),[2],No analgesic activity was observed
same,concentration at 0.25 h,"[3]; guinea pig, plasma, po",~40 ng/mL
same,concentration at 1.5 h,"[3]; guinea pig, plasma, po, orally 5 mg/kg, end of 90 minutes test period, read-out: plasma glaucine level at end of test period",~200 ng/mL
same,Cmax,"[3]; guinea pig, plasma, po, orally 5 mg/kg, one hour after administration, read-out: peak plasma glaucine level",> 350 ng/mL
same,time of peak plasma level,[3]; orally 5 mg/kg,one
same,ED50,[4],5.99 mg/kg
same,95 percent confidence limits of ED50 (HCl writhing),[4],2.43 to 14.8 mg/kg
same,ED50,[5],12.7 mg/kg
same,ED50,[6],17 mg/kg
COc1cc2c(cc1OC)-c1c(OC)c(OC)cc3c1[C@H](C2)N(C)CC3 [d-glaucine],adrenolytic activity,[10],adrenolytic activity
same,doses with analgesic activity,[11],50 to 100 mg/kg
same,hexenal and chloral hydrate sleep time,[12],prolongs hexenal and chloral hydrate sleep time
COc1ccc2c3c1O[C@H]1[C@@H](O)C=C[C@H]4[C@@H](C2)N(C)CC[C@@]341 [codeine phosphate],stimulation and Straub tail,[7],produced Straub tail and stimulation
same,mice jumping after naloxone,[7]; [14],2 of 6
same,total jumps after naloxone,[7]; [14],23 jumps total
same,ED50 (tail pinch),[2],6.8 mg/kg
same,ED50,[6],21.1 mg/kg
COc1ccc2c3c1O[C@H]1[C@@H](O)C=C[C@H]4[C@@H](C2)N(C)CC[C@@]341 [codeine],self-administration response rate,[8],100-150 responses/two hour session
CCC(=O)O[C@](Cc1ccccc1)(c1ccccc1)[C@H](C)CN(C)C [d-Propoxyphene·HCl],ED50 (tail pinch),[2],16.7 mg/kg
"COc1cc2c(cc1OC)-c1c(OC)c(OC)cc3c1C(C2)N(C)CC3 (racemic) [d,l-glaucine lactate]",jumping behavior after naloxone (in words),[7],no jumping in any of the ten mice tested
same,"LD50, intraperitoneal",[13]; intraperitoneal,178 mg/kg
same,"LD50, oral","[13]; oral, 4320 min",383 mg/kg
same,oral ED50 (phenyl-p-quinone writhing),[6]; 30 min,25.5 mg/kg
